Converted amounts (≈) assume the structure as drawn. Values belong to the molecule of their own block, whether it stands above or below them.
How the values were obtained:
[1] = target: T1, Hepatic sodium/bile acid cotransporter (Homo sapiens, UniProt Q14973); assay: Binding affinity to NTCP (unknown origin) assessed as inhibition constant
T1 sequence (Q14973 whole entry): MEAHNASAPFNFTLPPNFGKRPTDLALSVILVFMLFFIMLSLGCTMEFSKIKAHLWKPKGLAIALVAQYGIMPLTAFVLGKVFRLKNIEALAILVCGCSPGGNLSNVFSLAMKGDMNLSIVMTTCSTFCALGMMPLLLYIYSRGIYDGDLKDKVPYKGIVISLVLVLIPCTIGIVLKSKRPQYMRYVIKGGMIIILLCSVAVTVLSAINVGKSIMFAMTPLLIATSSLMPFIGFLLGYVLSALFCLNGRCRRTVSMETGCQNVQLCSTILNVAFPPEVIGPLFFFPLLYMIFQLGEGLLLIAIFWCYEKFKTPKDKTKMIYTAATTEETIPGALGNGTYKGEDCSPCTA

[2] = target: T2, Ileal sodium/bile acid cotransporter (Homo sapiens, UniProt Q12908); assay: Binding affinity to ASBT (unknown origin) assessed as inhibition constant
T2 sequence (Q12908 whole entry): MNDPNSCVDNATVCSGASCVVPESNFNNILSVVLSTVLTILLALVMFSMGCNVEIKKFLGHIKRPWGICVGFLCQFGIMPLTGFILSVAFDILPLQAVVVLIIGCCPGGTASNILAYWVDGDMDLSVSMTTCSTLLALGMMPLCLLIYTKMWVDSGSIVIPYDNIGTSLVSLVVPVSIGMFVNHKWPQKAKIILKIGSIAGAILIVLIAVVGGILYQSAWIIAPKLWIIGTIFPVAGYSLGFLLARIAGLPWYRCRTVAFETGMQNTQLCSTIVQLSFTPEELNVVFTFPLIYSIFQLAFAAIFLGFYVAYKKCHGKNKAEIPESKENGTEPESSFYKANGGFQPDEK

Escherichia coli = assay: Antibacterial activity against Escherichia coli; type: functional
Rattus norvegicus [3] = assay: Antiarrhythmic activity in pentobarbital anesthetized rat model assessed as number of ventricular ectopics at 10 mg/kg, iv; type: functional
Rattus norvegicus [4] = assay: Antiarrhythmic activity in pentobarbital anesthetized rat model assessed as ventricular fibrillation at 10 mg/kg, iv relative to control; type: functional
MCF7 = assay: Antiproliferative activity against human MCF7 by MTT assay; type: functional, cell-based
Klebsiella pneumoniae = assay: Antibacterial activity against Klebsiella pneumoniae; type: functional
Acinetobacter baumannii = assay: Antibacterial activity against Acinetobacter baumannii; type: functional
[5] = Anticancer activity against human U-87 MG cells assessed as growth inhibition; type: functional, U-87MG ATCC
MDA-MB-231 = assay: Anticancer activity against human MDA-MB-231 cells assessed as growth inhibition; type: functional
Staphylococcus aureus = assay: Antibacterial activity against methicillin-resistant Staphylococcus aureus; type: functional

Molecule: C[C@]12C[C@H](O)[C@@H](NC(=O)CN)C[C@H]1CC[C@@H]1[C@@H]2CC[C@]2(C)C(=O)CC[C@@H]12
Activity (Rattus norvegicus [3]): 172 | Activity (Rattus norvegicus [4]): 11%

Molecule: C[C@H](CCC(=O)NCC(=O)O)[C@H]1CC[C@H]2[C@@H]3[C@H](O)C[C@@H]4C[C@H](OC(=O)c5cccnc5)CC[C@]4(C)[C@H]3CC[C@]12C
Ki [1]: 5.38 µM | Ki [2]: 6.45 µM

Molecule: CC(C)[C@H](N)C(=O)NCC(=O)OO[C@H]1C[C@H]2[C@@H]([C@H](OC(=O)CNC(=O)[C@@H](N)C(C)C)C[C@@H]3C[C@H](OC(=O)CNC(=O)[C@@H](N)C(C)C)CC[C@@]32C)[C@@H]2CC[C@H]([C@H](C)CCC(=O)OCc3ccccc3)[C@@]12C
MIC (Klebsiella pneumoniae): 16 µM (≈ 15.7 µg/mL) | MIC (Acinetobacter baumannii): 16 µM (≈ 15.7 µg/mL) | MIC (Escherichia coli): 8 µM

Molecule: Cc1c(NC(=O)[C@H](C)NC(=O)CC[C@@H](C)[C@H]2CC[C@H]3[C@@H]4[C@H](O)C[C@@H]5C[C@H](O)CC[C@]5(C)[C@H]4C[C@H](O)[C@]23C)c(=O)n(-c2ccccc2)n1C
GI50 [5]: 2.49 µM

Molecule: COC(=O)CCCN[C@@H]1CC[C@@]2(C)[C@H](C1)C[C@@H](NCCCC(=O)OC)[C@@H]1[C@@H]2CC[C@]2(C)[C@@H]([C@H](C)CCCC(C)C)CC[C@@H]12
MIC (Staphylococcus aureus): 2 µg/mL (≈ 3.32 µM)

Molecule: C[C@H](CCC(=O)NCC(=O)O)[C@H]1CC[C@H]2[C@@H]3[C@@H](OC(=O)c4ccc(F)cc4)C[C@@H]4C[C@H](O)CC[C@]4(C)[C@H]3CC[C@]12C
Ki [1]: 2.55 µM | Ki [2]: 8.39 µM

More lines, main results first:

Ki [1]: 11.8 µM | Ki [2]: 15.2 µM
Molecule: C[C@H](CCC(=O)NCC(=O)O)[C@H]1CC[C@H]2[C@@H]3[C@@H](OC(=O)c4cccnc4)C[C@@H]4C[C@H](O)CC[C@]4(C)[C@H]3CC[C@]12C

MIC (Escherichia coli): 1.8 µg/mL
Molecule: POLYMYXIN B

IC50 (MCF7): < 10 µM
Molecule: COC(=O)[C@H](CCCCNC(=O)CC[C@H](C)[C@H]1CC[C@H]2[C@@H]3[C@H](O)C[C@@H]4C[C@H](O)CC[C@]4(C)[C@H]3C[C@H](O)[C@]12C)NC(=O)CC[C@@H](C)[C@H]1CC[C@H]2[C@@H]3[C@H](O)C[C@@H]4C[C@H](O)CC[C@]4(C)[C@H]3C[C@H](O)[C@]12C

IC50 (MCF7): > 50 µM
Molecule: C[C@H](CCC(=O)N[C@@H](CCCCNC(=O)CC[C@H](C)[C@H]1CC[C@H]2[C@@H]3CC[C@@H]4C[C@H](O)CC[C@]4(C)[C@H]3C[C@H](O)[C@]12C)C(=O)O)[C@H]1CC[C@H]2[C@@H]3CC[C@@H]4C[C@H](O)CC[C@]4(C)[C@H]3C[C@H](O)[C@]12C

IC50 (MCF7): < 10 µM
Molecule: COC(=O)[C@H](CCCCNC(=O)CC[C@H](C)[C@H]1CC[C@H]2[C@@H]3CC[C@@H]4C[C@H](O)CC[C@]4(C)[C@H]3C[C@H](O)[C@]12C)NC(=O)CC[C@@H](C)[C@H]1CC[C@H]2[C@@H]3CC[C@@H]4C[C@H](O)CC[C@]4(C)[C@H]3C[C@H](O)[C@]12C

GI50 (MDA-MB-231): 4.52 µM
Molecule: Cc1ccc(NC(=O)[C@H](C)NC(=O)CC[C@@H](C)[C@H]2CC[C@H]3[C@@H]4[C@H](O)C[C@@H]5C[C@H](O)CC[C@]5(C)[C@H]4C[C@H](O)[C@]23C)cc1
GI50 [5]: 1.62 µM

Ki [1]: 4.21 µM | Ki [2]: 20.4 µM
Molecule: C[C@H](CCC(=O)NCC(=O)O)[C@H]1CC[C@H]2[C@@H]3C(=O)C[C@@H]4C[C@H](O)CC[C@]4(C)[C@H]3CC[C@]12C

MIC (Escherichia coli): 1 µg/mL
Molecule: CCCCCCCCNCCC[C@@H](C)[C@H]1CC[C@H]2[C@@H]3[C@H](OCCCNC(=N)N)C[C@@H]4C[C@H](OCCCNC(=N)N)CC[C@]4(C)[C@H]3C[C@H](OCCCNC(=N)N)[C@]12C

GI50 (MDA-MB-231): 1 µM
Molecule: COc1cccc2c1C(=O)c1c(O)c3c(c(O)c1C2=O)C[C@@](O)(C(=O)CO)C[C@@H]3O[C@H]1C[C@H](N)[C@H](O)[C@H](C)O1 [DOXORUBICIN]
GI50 [5]: 2.6 µM

From ChEMBL document CHEMBL5230082, “Recent advances in steroid amino acid conjugates: Old scaffolds with new dimensions” (Eur J Med Chem, 2020)
